The values below are quoted from earlier work in patent US20210284969A1, “METHODS AND SYSTEMS FOR TRANSPORTATION AND CULTURE OF BUOYANT TISSUE” (eXo Cell, LLC, priority 2020, published 2021).

Series [1] deals with obese, diabetic yellow KK mice.
The test system of series [2] is brown adipose tissue. To be noted: in humans.
Series [3] relates to obese human males.

For the compound `C[C@H](Cc1ccc2c(c1)OC(C(=O)[O-])(C(=O)[O-])O2)NC[C@H](O)c1cccc(Cl)c1.[Na+].[Na+]` [CL-316243], the effect on obesity entry in series [1] is given as “ameliorated obesity”. For `Nc1nc(CC(=O)Nc2ccc(CCNC[C@H](O)c3ccccc3)cc2)cs1` [migrabegron], the “brown adipose tissue activation” value in series [2] was “activate brown adipose tissue”.

`O=S(=O)(Nc1ccc(CCNC[C@H](O)c2cccnc2)cc1)c1ccc(-c2nc(-c3ccc(C(F)(F)F)cc3)cs2)cc1` [L-796568]: in series [3], the anti-obesity effects entry is “did not generate notable anti-obesity effects” and the energy expenditure entry was “improved energy expenditure”.
